Test results reported in patent US6518262B1, “22R-hydroxycholesta-8, 14-diene derivatives for the inhibition of meiosis” (Akzo Nobel N.V., priority 1999, dated 2003).

How the values were obtained:
[1] = test system: cumulus enclosed oocytes (CEO); assay: Oocyte assay, agonistic testing, cumulus enclosed oocytes (CEO assay); format: cell-based, mice (B6D2-F1, strain C57BL×DBA); settings: hypoxanthine medium, 22 hours culture, control value in brackets
From the text: (§1) Oocytes arrested in meiosis contain diffused chromosomes which are surrounded by an intact nuclear envelope known as the germinal vesicle (GV). Upon reinitiation of meiosis by the midcycle gonadotropin surge, the chromosomes recondense and the GV breaks down (GVBD). In vivo, the oocyte is exposed to hypoxanthine (HX), which maintains the oocyte arrested in the meiotic prophase. This meiotic arrest can be mimicked in vitro by addition of hypoxanthine to the culture medium. The agonistic activity of meiosis activating substances is measured as the ability to overcome the hypoxanthine maintained meiotic arrest in denuded oocytes (DO) or cumulus enclosed oocytes (CEO), i.e. as the ability to induce meiotic resumption in vitro.
(§2) Ovaries are obtained from immature female mice (B6D2-F1, strain C57BL×DBA). At the age of 19, 20 or 21 days the mice are injected subcutaneously with a single dose of 20 IU follicle stimulating hormone (Humegon, Organon, The Netherlands) in saline.
Forty-eight hours after follicle stimulating hormone injection mice are killed by cervical dislocation. The ovaries are removed, freed of extraneous tissue and placed in a multidish containing 0.5 ml preparation medium at 37° C. L-15 Leibovitz medium (Gibco, pH 7.3±0.1) supplemented with bovine serum albumin (3 mg·ml^−1), L-glutamine (0.23 mM), sodium pyruvate (2 mM) and hypoxanthine (4 mM) is used as preparation medium. […]
(§3) The oocyte assay is performed in 3 blocks, each block represents the ovaries of one mouse (randomized block design). […] At t=0 the number of oocytes with intact germinal vesicles (GV) or germinal vesicle break-down (GVBD) is counted under an inverted microscope with differential interference contrast equipment. […] At the end of the culture period the number of oocytes with GV or GVBD per group is counted. For statistical analysis the percentage germinal vesicle breakdown is calculated for each group in one block. These percentages are subjected to arcsin transformation, and differences between control and test compounds are analyzed by an ANOVA test for a randomized block design. […]

denuded oocytes (DO) = assay: Oocyte assay, agonistic testing, denuded oocytes (DO assay); format: cell-based, mice (B6D2-F1, strain C57BL×DBA); settings: hypoxanthine medium, 22 hours culture, control value in brackets
From the text: as §1, §2
Forty-eight hours after follicle stimulating hormone injection mice are killed by cervical dislocation. The ovaries are removed, freed of extraneous tissue and placed in a multidish containing 0.5 ml preparation medium at 37° C. L-15 Leibovitz medium (Gibco, pH 7.3±0.1) supplemented with bovine serum albumin (3 mg·ml^−1), L-glutamine (0.23 mM), sodium pyruvate (2 mM) and hypoxanthine (4 mM) is used as preparation medium. The antral follicles of the ovaries are punctured under a dissecting microscope using two 27-gauge needles attached to two 1 ml syringes. Cumulus enclosed oocytes (CEO) of uniform size are selected with a mouth-controlled pipette and rinsed in 0.5 ml fresh preparation medium. About 20 CEO are obtained from one ovary.
Oocytes freed from cumulus cells, i.e. denuded oocytes (DO), are obtained by gently flushing CEO through a fine-bore mouth-controlled pipette. DO were collected in fresh MEM alpha medium, containing bovine serum albumin (3 mg·ml^−1), L-glutamine (0.23 mM), sodium pyruvate (2 mM) and hypoxanthine (4 mM), and washed twice before transfer to the test medium.
as §3

[2] = test system: cultured cumulus enclosed and naked mouse oocytes; settings: cited from earlier work

| SMILES | % GVBD CEO assay exp. ([1]; compound 5 μM) | % GVBD DO assay exp. (denuded oocytes (DO); compound 5 μM) | activation of the resumption of meiosis [2] | % GVBD CEO assay exp. ([1]; compound 10 μM) | % GVBD DO assay exp. (denuded oocytes (DO); compound 10 μM) |
| --- | --- | --- | --- | --- | --- |
| CC(C)=CC[C@H](O)[C@@H](C)[C@H]1CC=C2C3=C(CC[C@@]21C)[C@@]1(C)CC[C@H](O)C(C)(C)[C@@H]1CC3 [22S-hydroxy-FF-Mas, (3β,5α,20S,22S)-4,4-dimethylcholesta-8,14,24-triene-3,22-diol] | 73(2) % | 97(2) % |  |  |  |
| CC(C)=CCC[C@@H](C)[C@H]1CC[C@H]2C3=C(CC[C@]12C)[C@@]1(C)CC[C@H](O)C(C)(C)[C@@H]1CC3 [(3β,5α,20R)-4,4-dimethylcholesta-8,24-dien-3-ol] |  |  | able to activate the resumption of meiosis |  |  |
| CC(C)=CCC[C@@H](C)[C@H]1CC=C2C3=C(CC[C@@]21C)[C@@]1(C)CC[C@H](O)C(C)(C)[C@@H]1CC3 [FF-Mas, (3β,5α,20R)-4,4-dimethylcholesta-8,14,24-trien-3-ol] |  |  | able to activate the resumption of meiosis | 0(0) % | 84(7) % |
